Measured values as given in article PMC3330828 (2012).

Experiments:
[1] = biological target: T1, caspase-1 (Homo sapiens, UniProt P29466); experiment: in vitro fluorometric enzyme assay; assay type: biochemical
T1 sequence (P29466 120-297): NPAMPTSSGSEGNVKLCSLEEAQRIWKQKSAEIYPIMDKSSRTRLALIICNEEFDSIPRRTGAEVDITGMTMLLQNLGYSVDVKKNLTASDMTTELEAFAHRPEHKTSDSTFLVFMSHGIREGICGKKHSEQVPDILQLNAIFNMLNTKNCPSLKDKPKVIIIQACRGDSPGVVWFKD
T1 sequence (P29466 317-404): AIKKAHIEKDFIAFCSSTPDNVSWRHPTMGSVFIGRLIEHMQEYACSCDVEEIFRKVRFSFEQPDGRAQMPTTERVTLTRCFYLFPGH

[2] = biological target: T2, caspase-3 (Homo sapiens, UniProt P42574); experiment: in vitro fluorometric enzyme assay; assay type: biochemical
T2 sequence (P42574 29-175): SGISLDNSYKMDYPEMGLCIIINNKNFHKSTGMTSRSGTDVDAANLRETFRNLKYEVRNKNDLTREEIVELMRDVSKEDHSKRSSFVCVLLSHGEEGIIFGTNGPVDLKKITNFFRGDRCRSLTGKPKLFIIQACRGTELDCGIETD
T2 sequence (P42574 176-277): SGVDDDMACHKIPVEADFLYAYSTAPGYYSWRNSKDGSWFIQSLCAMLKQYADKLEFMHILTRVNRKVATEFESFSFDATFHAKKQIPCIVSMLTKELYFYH

| Substance | IC50 [1] | IC50 [2] |
| --- | --- | --- |
| berkedrimane A [compound 1] | 100 µM | 200 µM |
| berkedrimane B [compound 2] | 90 µM | 50 µM |
